Test results published in patent US11384060B2, “Amide compounds and use thereof” (ALPHALA CO., LTD., priority 2017, dated 2022).
Read-outs that look alike come from different tables or passages of the source.

Tests used:
glucagon receptor (GCGR) = target: T1, glucagon receptor (GCGR) (Homo sapiens, UniProt P47871); assay: I125-glucagon binding assay (competition, GCGR membrane fractions)
T1 construct: expressed in transfected cells; host or cells: CHO-K1 cells overexpressing GCGR (membrane fractions)
Procedure, shortened: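 Membranes from CHO-K1 cells overexpressing GCGR, 7.5 μg/well in 50 mM Tris pH 7.4 with 0.5% BSA, were preincubated 5 min with serially diluted compounds, then given 0.0625 nM final I^125-glucagon for 30 min at 25° C. Bound label was filtered on PEI-coated GF/B and counted; IC50 by non-linear regression.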

[1] = target: T2, glucagon receptor (GCGR) overexpressed CHO-K1 cells or human primary hepatocytes (Homo sapiens, UniProt P47871); assay: Glucagon cAMP inhibition assay (Cisbio cAMP Dynamic 2 HTRF); type: cell-based
T2 construct: expressed in transfected cells; host or cells: GCGR overexpressed CHO-K1 cells or human primary hepatocytes (endogenous receptor)
Procedure, shortened: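 GCGR-overexpressing CHO-K1 cells or human primary hepatocytes in HBSS with 0.1% BSA and 800 nM IBMX, pre-incubated 30 min with serially diluted compounds (1% DMSO final), then stimulated 30 min at room temperature with glucagon at its EC50. cAMP measured by HTRF after 60 min lysis; IC50 by non-linear regression.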

T2 sequence (P47871 26-477): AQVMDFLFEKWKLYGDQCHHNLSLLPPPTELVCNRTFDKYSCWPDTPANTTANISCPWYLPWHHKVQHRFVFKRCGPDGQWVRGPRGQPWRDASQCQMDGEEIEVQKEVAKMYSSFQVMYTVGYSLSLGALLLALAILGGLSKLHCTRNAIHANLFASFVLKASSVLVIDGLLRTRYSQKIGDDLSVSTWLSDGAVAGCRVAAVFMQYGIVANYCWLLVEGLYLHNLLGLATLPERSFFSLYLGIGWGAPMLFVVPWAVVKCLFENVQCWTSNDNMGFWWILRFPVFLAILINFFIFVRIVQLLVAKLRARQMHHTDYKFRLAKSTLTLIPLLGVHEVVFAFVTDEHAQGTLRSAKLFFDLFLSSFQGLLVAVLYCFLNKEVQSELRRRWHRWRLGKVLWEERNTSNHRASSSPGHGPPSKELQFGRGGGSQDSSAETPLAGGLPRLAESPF
T1 sequence (P47871 26-477): as above

| Structure (SMILES) | IC50 (glucagon receptor (GCGR); competition with I125-glucagon 0.0625 nM, membrane fractions of GCGR overexpressed CHO-K1 cells) [µM] | IC50 cAMP ([1]; inhibition of glucagon (EC50 concentration) induced cAMP production) [µM] | IC50 (glucagon receptor (GCGR)) [µM] | IC50 cAMP [1] [µM] | IC50 (glucagon receptor (GCGR); uM) [µM] |
| --- | --- | --- | --- | --- | --- |
| CC(C)[C@@H](Cc1noc(-c2ccc(C(C)(C)C)cc2)n1)Nc1ccc(C(=O)NCCC(=O)O)cc1 [Compound 21-3, (R)-3-(4-((1-(5-(4-(tert-butyl)phenyl)-1,2,4-oxadiazol-3-yl)-3-methylbutan-2-yl)amino)benzamido)propanoic Acid] | 1.13 | 5.436 | – | – | – |
| CC[C@H](C)[C@@H](COc1nnc(-c2ccc(C(F)(F)F)cc2F)o1)Nc1ccc(C(=O)NCCC(=O)O)cc1 [Compound 22-1, 3-(4-(((2S,3S)-1-((5-(2-fluoro-4-(trifluoromethyl)phenyl)-1,3,4-oxadiazol-2-yl)oxy)-3-methylpentan-2-yl)amino)benzamido)propanoic Acid] | – | – | 0.062 | >30 | – |
| CCCC[C@@H](COc1nnc(-c2ccc(OC(F)(F)F)cc2)o1)Nc1ccc(C(=O)NCCC(=O)O)cc1 [Compound 22-2, (S)-3-(4-((1-((5-(4-(trifluoromethoxy)phenyl)-1,3,4-oxadiazol-2-yl)oxy)hexan-2-yl)amino)benzamido)propanoic Acid] | – | – | 1.43 | >30 | – |
| CCCC[C@@H](COc1nnc(-c2ccc(C(F)(F)F)cc2F)o1)Nc1ccc(C(=O)NCCC(=O)O)cc1 [Compound 22-3, (S)-3-(4-((1-((5-(2-fluoro-4-(trifluoromethyl)phenyl)-1,3,4-oxadiazol-2-yl)oxy)hexan-2-yl)amino)benzamido)propanoic Acid] | – | – | 13.6 | >30 | – |
| CCCC[C@@H](COc1nnc(-c2cc3ccccc3o2)o1)Nc1ccc(C(=O)NCCC(=O)O)cc1 [Compound 22-4, (S)-3-(4-((1-((5-(benzofuran-2-yl)-1,3,4-oxadiazol-2-yl)oxy)hexan-2-yl)amino)benzamido)propanoic Acid] | – | – | > 30 | >30 | – |
| CCCC[C@@H](COc1nnc(-c2ccc(C(F)(F)F)cc2)o1)Nc1ccc(C(=O)NCCC(=O)O)cc1 [Compound 22-5, (S)-3-(4-((1-((5-(4-(trifluoromethyl)phenyl)-1,3,4-oxadiazol-2-yl)oxy)hexan-2-yl)amino)benzamido)propanoic Acid] | – | – | > 30 | >30 | – |
| CCCC[C@@H](COc1nnc(-c2ccc(Cl)cc2Cl)o1)Nc1ccc(C(=O)NCCC(=O)O)cc1 [Compound 22-6, (S)-3-(4-((1-((5-(2,4-dichlorophenyl)-1,3,4-oxadiazol-2-yl)oxy)hexan-2-yl)amino)benzamido)propanoic Acid] | – | – | > 30 | >30 | – |
| CC[C@H](C)[C@@H](COc1nnc(-c2cc3ccccc3o2)o1)Nc1ccc(C(=O)NCCC(=O)O)cc1 [Compound 22-7, 3-(4-(((2S,3 S)-1-((5-(benzofuran-2-yl)-1,3,4-oxadiazol-2-yl)oxy)-3-methylpentan-2-yl)amino)benzamido)propanoic Acid] | – | – | > 30 | >30 | – |
| CC[C@H](C)[C@@H](COc1nnc(-c2ccc(C(F)(F)F)cc2)o1)Nc1ccc(C(=O)NCCC(=O)O)cc1 [Compound 22-10, 3-(4-(((2S,3S)-3-methyl-1-((5-(4-(trifluoromethyl)phenyl)-1,3,4-oxadiazol-2-yl)oxy)pentan-2-yl)amino)benzamido)propanoic Acid] | – | – | > 30 | >30 | – |
| CC[C@H](C)[C@@H](COc1nnc(-c2ccc(Cl)cc2Cl)o1)Nc1ccc(C(=O)NCCC(=O)O)cc1 [Compound 22-11, 3-(4-(((2S,3S)-1-((5-(2,4-dichlorophenyl)-1,3,4-oxadiazol-2-yl)oxy)-3-methylpentan-2-yl)amino)benzamido)propanoic Acid] | – | – | > 30 | >30 | – |
| CC(C)[C@@H](COc1nnc(-c2cc3ccccc3o2)o1)Nc1ccc(C(=O)NCCC(=O)O)cc1 [Compound 22-12, (S)-3-(4-((1-((5-(benzofuran-2-yl)-1,3,4-oxadiazol-2-yl)oxy)-3-methylbutan-2-yl)amino)benzamido)propanoic Acid] | – | – | > 30 | >30 | – |
| CC(C)[C@@H](COc1nnc(-c2ccc(C(F)(F)F)cc2)o1)Nc1ccc(C(=O)NCCC(=O)O)cc1 [Compound 22-13, (S)-3-(4-((3-methyl-1-((5-(4-(trifluoromethyl)phenyl)-1,3,4-oxadiazol-2-yl)oxy)butan-2-yl)amino)benzamido)propanoic Acid] | – | – | > 30 | >30 | – |
| CC(C)[C@@H](COc1nnc(-c2ccc(Cl)cc2Cl)o1)Nc1ccc(C(=O)NCCC(=O)O)cc1 [Compound 22-14, (S)-3-(4-((1-((5-(2,4-dichlorophenyl)-1,3,4-oxadiazol-2-yl)oxy)-3-methylbutan-2-yl)amino)benzamido)propanoic Acid] | – | – | > 30 | >30 | – |
| CC(C)[C@@H](COc1nnc(-c2ccc(OC(F)(F)F)cc2)o1)Nc1ccc(C(=O)NCCC(=O)O)cc1 [Compound 22-15, (S)-3-(4-((3-methyl-1-((5-(4-(trifluoromethoxy)phenyl)-1,3,4-oxadiazol-2-yl)oxy)butan-2-yl)amino)benzamido)propanoic Acid] | – | – | > 30 | >30 | – |
| CC(C)[C@@H](COc1nnc(-c2ccc(C(C)(C)C)cc2)o1)Nc1ccc(C(=O)NCCC(=O)O)cc1 [Compound 22-16, (S)-3-(4-((1-((5-(4-(tert-butyl)phenyl)-1,3,4-oxadiazol-2-yl)oxy)-3-methylbutan-2-yl)amino)benzamido)propanoic Acid] | – | – | > 30 | >30 | – |
| CC(C)[C@@H](COc1nnc(-c2ccc(C(F)(F)F)cc2F)o1)Nc1ccc(C(=O)NCCC(=O)O)cc1 [Compound 22-17] | – | – | > 30 | >30 | – |
| CCCC[C@@H](COc1nnc(-c2ccc(C(C)(C)C)cc2)o1)Nc1ccc(C(=O)NCCC(=O)O)cc1 [Compound 22-18, (S)-3-(4-((1-((5-(4-(tert-butyl)phenyl)-1,3,4-oxadiazol-2-yl)oxy)hexan-2-yl)amino)benzamido)propanoic Acid] | – | – | > 30 | >30 | – |
| CC[C@H](C)[C@@H](COc1nnc(-c2ccc(C(F)(F)F)cc2Cl)o1)Nc1ccc(C(=O)NCCC(=O)O)cc1 [Compound 22-19] | – | – | > 30 | >30 | – |
| CC[C@H](C)[C@@H](COc1nnc(-c2ccc(C(F)(F)F)cc2F)o1)Nc1ccc(C(=O)NCCC(=O)OC)cc1 [Compound 22-20, Methyl 3-(4-(((2S,3S)-1-((5-(2-fluoro-4-(trifluoromethyl)phenyl)-1,3,4-oxadiazol-2-yl)oxy)-3-methylpentan-2-yl)amino)benzamido)propanoate] | – | – | > 30 | >30 | – |
| CC(C)C[C@H](Nc1ccc(C(=O)NCCC(=O)O)cc1)C(=O)Nc1ccc(-c2ccc(Cl)cc2Cl)cc1 [Compound 23-1, (S)-3-(4-((1-((2′,4′-dichloro-[1,1′-biphenyl]-4-yl)amino)-4-methyl-1-oxopentan-2-yl)amino)benzamido)propanoic Acid] | – | – | 0.087 | 3.6 | – |
| O=C(O)CCNC(=O)c1ccc(N[C@@H](Cc2ccccc2)C(=O)Nc2ccc(-c3ccc(Cl)cc3Cl)cc2)cc1 [Compound 23-2, (S)-3-(4-((1-((2′,4′-dichloro-[1,1′-biphenyl]-4-yl)amino)-1-oxo-3-phenylpropan-2-yl)amino)benzamido)propanoic Acid] | – | – | 0.462 | 5.2 | – |
| Cc1cc(C)c(-c2ccc(NC(=O)[C@H](Cc3ccccc3)Nc3ccc(C(=O)NCCC(=O)O)cc3)cc2)c(C)c1 [Compound 23-3, (S)-3-(4-((1-oxo-3-phenyl-1-((2′,4′,6′-trimethyl-[1,1′-biphenyl]-4-yl)amino)propan-2-yl)amino)benzamido)propanoic Acid] | – | – | 0.388 | 5.8 | – |
| CC(C)C[C@H](Nc1ccc(C(=O)NCCC(=O)O)cc1)C(=O)Nc1ccc(-c2ccc(C(F)(F)F)cc2)cc1 [Compound 23-4, (S)-3-(4-((4-methyl-1-oxo-1-((4′-(trifluoromethyl)-[1,1′-biphenyl]-4-yl)amino)pentan-2-yl)amino)benzamido)propanoic Acid] | – | – | 0.269 | 3.2 | – |
| CC(C)C[C@H](Nc1ccc(C(=O)NCCC(=O)O)cc1)C(=O)Nc1ccc(-c2cc3ccccc3o2)cc1 [Compound 23-5, (S)-3-(4-((1-((4-(benzofuran-2-yl)phenyl)amino)-4-methyl-1-oxopentan-2-yl)amino)benzamido)propanoic Acid] | – | – | 0.08 | 3.5 | – |
| CCOC(=O)CCNC(=O)c1ccc(N[C@@H](CC(C)C)C(=O)Nc2ccc(-c3cc4ccccc4o3)cc2)cc1 [Compound 23-6, Ethyl (S)-3-(4-((1-((4-(benzofuran-2-yl)phenyl)amino)-4-methyl-1-oxopentan-2-yl)amino)benzamido)propanoate] | – | – | 2.51 | 0.181 | – |
| CCOC(=O)CCNC(=O)c1ccc(N[C@@H](Cc2ccccc2)C(=O)Nc2ccc(-c3cc4ccccc4o3)cc2)cc1 [Compound 23-7, Ethyl (S)-3-(4-((1-((4-(benzofuran-2-yl)phenyl)amino)-1-oxo-3-phenylpropan-2-yl)amino)benzamido)propanoate] | – | – | 4.27 | 0.0643 | – |
| O=C(O)CCNC(=O)c1ccc(N[C@@H](Cc2ccccc2)C(=O)Nc2ccc(-c3cc4ccccc4o3)cc2)cc1 [Compound 23-8, (S)-3-(4-((1-((4-(benzofuran-2-yl)phenyl)amino)-1-oxo-3-phenylpropan-2-yl)amino)benzamido)propanoic Acid] | – | – | – | 2 | > 10 |
